From patent publication US20240252488A1 (KOREA RESEARCH INSTITUTE OF CHEMICAL TECHNOLOGY, priority 2020, published 2024)

Key:
[1] = target: T1, MLKL (Homo sapiens, UniProt Q8NB16); test: MLKL degradation assay in HepG2 cell line (western blot); format: cell-based; set-up: endogenous in cells; host or cells: HepG2 or HaCaT; conditions: cell line not given; for Degradation assay (Degradation %) 1 μM: compound 1 μM; for Degradation assay (Degradation %) 10 μM: compound 10 μM
T1 sequence (Q8NB16 1-471): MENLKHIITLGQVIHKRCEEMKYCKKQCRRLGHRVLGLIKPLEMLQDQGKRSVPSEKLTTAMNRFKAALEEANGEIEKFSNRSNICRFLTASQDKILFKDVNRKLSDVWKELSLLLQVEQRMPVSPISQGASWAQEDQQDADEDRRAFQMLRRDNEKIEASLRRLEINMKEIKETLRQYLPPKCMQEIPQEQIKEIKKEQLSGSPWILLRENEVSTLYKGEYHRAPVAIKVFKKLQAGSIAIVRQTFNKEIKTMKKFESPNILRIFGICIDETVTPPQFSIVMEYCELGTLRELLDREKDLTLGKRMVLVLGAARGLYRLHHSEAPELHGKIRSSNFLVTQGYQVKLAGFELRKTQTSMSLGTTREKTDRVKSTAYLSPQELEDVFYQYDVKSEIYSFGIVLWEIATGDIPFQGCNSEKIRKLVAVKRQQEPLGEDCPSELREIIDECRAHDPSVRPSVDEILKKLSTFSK
Outline: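 Chemiluminescent western blot signal reports remaining MLKL protein in HepG2 cells after 20-24 h treatment with compound at a final 1 or 10 μM. Equal protein (10-15 μg, BCA) is loaded per lane.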

[2] = target: T1, MLKL; test: Measurement of binding affinity with MLKL receptor (competitive binding assay, Kd); set-up: made in house; host or cells: HEK 293 cell line (T7 phage in E. coli BL21-derived host is also described)
Outline: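 MLKL was produced in HEK 293 cells and tagged with DNA for detection. Liganded beads were blocked with excess biotin and washed to cut non-specific binding, then compounds (111× DMSO stocks, 0.9% DMSO in assay) competed for binding. Eluate kinase was measured by qPCR for Kd.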

[3] = tested on: FADD−/− Jurkat cells; test: Necroptosis inhibition assay, TNF-α-induced necroptosis (CellTiter-Glo 2.0); format: cell-based, human; conditions: TNF-α 15 ng/mL; for Necroptosis inhibition assay (Rescue %) 1 μM: compound 1 μM; for Necroptosis inhibition assay (Rescue %) 10 μM: compound 10 μM
Outline: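 Compound is added to cells at final concentrations of 0.1, 1 and 10 μM and left 30 minutes at room temperature. Necroptosis is induced with 15 ng/mL TNF-α, culture continues 20 to 24 hours at 37° C, and ATP-based luminescence reports viability.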

SMILES | Degradation assay (Degradation %) 1 μM [1] [%] | Degradation assay (Degradation %) 10 μM [1] [%] | Kd [2] [nM] | Necroptosis inhibition assay (Rescue %) 1 μM [3] [%] | Necroptosis inhibition assay (Rescue %) 10 μM [3] [%] | Necroptosis inhibition assay (Rescue %) 1 μM ([3]; FADD−/− Jurkat cells) [%] | Necroptosis inhibition assay (Rescue %) 10 μM ([3]; FADD−/− Jurkat cells) [%]
Nc1ncc(-c2cnn(C3CCN(CC4CCN(c5ccc6c(c5)C(=O)N(C5CCC(=O)NC5=O)C6=O)CC4)CC3)c2)nc1C(=O)O[C@@H](C(=O)Nc1ccc(F)cc1)c1ccccc1 (stereo partly drawn) [TDH-150, (R)-2-((4-fluorophenyl)amino)-2-oxo-1-phenylethyl 3-amino-6-(1-(1-((1-(2-(2,6-dioxopiperidin-3-yl)-1,3-dioxoisoindolin-5-yl)piperidin-4-yl)methyl)piperidin-4-yl)-1H-pyrazol-4-yl)pyrazine-2-carboxylate] | 66.97 | 53.7 | 43 | 53.91 | 39.57 |  | 
Nc1ncc(-c2cnn(C3CCN(CCCN4CCN(C(=O)COc5cccc6c5C(=O)N(C5CCC(=O)NC5=O)C6=O)CC4)CC3)c2)nc1C(=O)OC(C(=O)Nc1ccc(F)cc1)c1ccccc1 (stereo not shown) [TDH-243, 2-((4-fluorophenyl)amino)-2-oxo-1-phenylethyl 3-amino-6-(1-(1-(3-(4-(2-((2-(2,6-dioxopiperidin-3-yl)-1,3-dioxoisoindolin-4-yl)oxy)acetyl)piperazin-1-yl)propyl)piperidin-4-yl)-1H-pyrazol-4-yl)pyrazine-2-carboxylate] | 57.14 | 54.82 | 0.94 | 61.25 | 53.31 |  | 
Nc1ncc(-c2cnn(C3CCN(CCC4CCN(C(=O)c5cccc(C(=O)NC6CCC(=O)NC6=O)c5)CC4)CC3)c2)nc1C(=O)O[C@@H](C(=O)Nc1ccc(F)cc1)c1ccccc1 (stereo partly drawn) [TDH-543, (R)-2-((4-fluorophenyl)amino)-2-oxo-1-phenylethyl 3-amino-6-(1-(1-(2-(1-(3-((2,6-dioxopiperidin-3-yl)carbamoyl)benzoyl)piperidin-4-yl)ethyl)piperidin-4-yl)-1H-pyrazol-4-yl)pyrazine-2-carboxylate] | 76.24 | 80.46 | 0.23 |  |  | 37.86 | 26.19
Nc1ncc(-c2cnn(C3CCN(C4CC5(CCN(CC6CCN(C(=O)C7CCN(C8=CC(=O)N(C9CCC(=O)NC9=O)C8=O)CC7)CC6)CC5)C4)CC3)c2)nc1C(=O)O[C@@H](C(=O)Nc1ccc(F)cc1)c1ccccc1 (stereo partly drawn) [TDH-528, (R)-2-((4-fluorophenyl)amino)-2-oxo-1-phenylethyl 3-amino-6-(1-(1-(7-((1-(1-(1-(2,6-dioxopiperidin-3-yl)-2,5-dioxo-2,5-dihydro-1H-pyrrol-3-yl)piperidine-4-carbonyl)piperidin-4-yl)methyl)-7-azaspiro[3.5]nonan-2-yl)piperidin-4-yl)-1H-pyrazol-4-yl)pyrazine-2-carboxylate] | 63.93 | 56.11 | 0.18 |  |  | 40.69 | 0.38
COc1ccc(C(=O)N2CCC(OCCN3CCC(n4cc(-c5cnc(N)c(C(=O)O[C@@H](C(=O)Nc6ccc(F)cc6)c6ccccc6)n5)cn4)CC3)CC2)cc1N1CCC(=O)NC1=O [TDH-448, (R)-2-((4-fluorophenyl)amino)-2-oxo-1-phenylethyl 3-amino-6-(1-(1-(2-((1-(3-(2,4-dioxotetrahydropyrimidin-1(2H)-yl)-4-methoxybenzoyl)piperidin-4-yl)oxy)ethyl)piperidin-4-yl)-1H-pyrazol-4-yl)pyrazine-2-carboxylate] | 48.26 | 7.49 | 0.38 |  |  | 27.91 | 20.07
Nc1ncc(-c2cnn(C3CCN(CC4CCN(C(=O)C5CCN(C6=CC(=O)N(C7CCC(=O)NC7=O)C6=O)CC5)CC4)CC3)c2)nc1C(=O)O[C@@H](C(=O)Nc1ccc(F)cc1)c1ccccc1 (stereo partly drawn) [TDH-523, (R)-2-((4-fluorophenyl)amino)-2-oxo-1-phenylethyl 3-amino-6-(1-(1-((1-(1-(1-(2,6-dioxopiperidin-3-yl)-2,5-dioxo-2,5-dihydro-1H-pyrrol-3-yl)piperidine-4-carbonyl)piperidin-4-yl)methyl)piperidin-4-yl)-1H-pyrazol-4-yl)pyrazine-2-carboxylate] | 89.24 | 77.14 | 1 |  |  | 35.34 | 16.27
Nc1ncc(-c2cnn(C3CCN(CCOCCOCCNC(=O)CNc4ccc5nnn(C6CCC(=O)NC6=O)c(=O)c5c4)CC3)c2)nc1C(=O)O[C@@H](C(=O)Nc1ccc(F)cc1)c1ccccc1 (stereo partly drawn) [TDH-174, (R)-2-((4-fluorophenyl)amino)-2-oxo-1-phenylethyl 3-amino-6-(1-(1-(2-(2-(2-(2-((3-(2,6-dioxopiperidin-3-yl)-4-oxo-3,4-dihydrobenzo[d][1,2,3]triazin-6-yl)amino)acetamido)ethoxy)ethoxy)ethyl)piperidin-4-yl)-1H-pyrazol-4-yl)pyrazine-2-carboxylate] | 49.38 | 52.62 | 2.2 | 16.47 | 42.59 |  | 
Nc1ncc(-c2cnn(C3CCN(CCCCCCCCCCNC(=O)COc4ccc5nnn(C6CCC(=O)NC6=O)c(=O)c5c4)CC3)c2)nc1C(=O)O[C@@H](C(=O)Nc1ccc(F)cc1)c1ccccc1 (stereo partly drawn) [TDH-176, (R)-2-((4-fluorophenyl)amino)-2-oxo-1-phenylethyl 3-amino-6-(1-(1-(10-(2-((3-(2,6-dioxopiperidin-3-yl)-4-oxo-3,4-dihydrobenzo[d][1,2,3]triazin-6-yl)oxy)acetamido)decyl)piperidin-4-yl)-1H-pyrazol-4-yl)pyrazine-2-carboxylate] | 34.07 | 23.76 | 22 | 44.28 | 35.42 |  | 
Nc1ncc(-c2cnn(C3CCN(C(=O)CC4CCN(C(=O)CNc5ccc6c(c5)C(=O)N(C5CCC(=O)NC5=O)C6=O)CC4)CC3)c2)nc1C(=O)O[C@@H](C(=O)Nc1ccc(F)cc1)c1ccccc1 (stereo partly drawn) [TDH-340, (R)-2-((4-fluorophenyl)amino)-2-oxo-1-phenylethyl 3-amino-6-(1-(1-(2-(1-((2-(2,6-dioxopiperidin-3-yl)-1,3-dioxoisoindolin-5-yl)glycyl)piperidin-4-yl)acetyl)piperidin-4-yl)-1H-pyrazol-4-yl)pyrazine-2-carboxylate] | 73.39 | 73.33 | 7.5 | 42.94 | 43.81 |  | 
Nc1ncc(-c2cnn(C3CCN(C(=O)CC4CCN(C(=O)CCc5cccc6c5CN(C5CCC(=O)NC5=O)C6=O)CC4)CC3)c2)nc1C(=O)O[C@@H](C(=O)Nc1ccc(F)cc1)c1ccccc1 (stereo partly drawn) [TDH-404, (R)-2-((4-fluorophenyl)amino)-2-oxo-1-phenylethyl 3-amino-6-(1-(1-(2-(1-(3-(2-(2,6-dioxopiperidin-3-yl)-1-oxoisoindolin-4-yl)propanoyl)piperidin-4-yl)acetyl)piperidin-4-yl)-1H-pyrazol-4-yl)pyrazine-2-carboxylate] | 45.30 | 79.08 | 1.1 |  |  | 26.83 | 49.11
Nc1ncc(-c2cnn(C3CCN(CCC4CCN(C(=O)CCc5ccc6c(c5)CN(C5CCC(=O)NC5=O)C6=O)CC4)CC3)c2)nc1C(=O)O[C@@H](C(=O)Nc1ccc(F)cc1)c1ccccc1 (stereo partly drawn) [TDH-475, (R)-2-((4-fluorophenyl)amino)-2-oxo-1-phenylethyl 3-amino-6-(1-(1-(2-(1-(3-(2-(2,6-dioxopiperidin-3-yl)-1-oxoisoindolin-5-yl)propanoyl)piperidin-4-yl)ethyl)piperidin-4-yl)-1H-pyrazol-4-yl)pyrazine-2-carboxylate] | 81.77 | 60.49 | 0.34 |  |  | 31.75 | 7.21
